Test results: US11369593B2 (Texas Tech University System, priority 2017, dated 2022)

System: PC12 cells
Test: Etoposide-induced apoptosis in PC12 cells, cell viability
Assay type: cell-based
Conditions: Rattus norvegicus, PC-12, etoposide-induced apoptosis, PC12 cells; for viability at 0.1 µM: 0.1 μM compound, vehicle 52.1 ± 7.32; for viability at 0.3 µM: 0.3 μM compound; for viability at 1 µM: 1 μM compound, read-out: % Viability 1 μM; for viability at 3 µM: 3 μM compound, read-out: % Viability 3 μM; for viability at 10 µM: 10 μM compound, read-out: % Viability 10 μM; for viability at 30 µM: 30 μM compound, read-out: % Viability 30 μM

**Q.** For CCOC(=O)Nc1ccc(NCc2ccccc2)nc1N [AM-2-3, Ethyl (2-amino-6-(benzylamino)pyridin-3-yl)carbamate], which viability at 0.1 µM is on record?
**A.** 83.2 ± 21.9%

**Q.** What about the viability at 0.3 µM of the same compound?
**A.** 87.5 ± 1.65%

**Q.** And the viability at 1 µM?
**A.** 93.5 ± 5.31%

**Q.** And the viability at 3 µM?
**A.** 78.6 ± 10.8%

**Q.** And the viability at 10 µM?
**A.** 92.2 ± 3.97%

**Q.** And the viability at 30 µM?
**A.** 88.8 ± 5.02%

**Q.** CCOC(=O)Nc1ccc(NCc2ccc(OC)cc2)nc1N [AM-4-3, Ethyl (2-amino-6-((4-methoxybenzyl)amino)pyridin-3-yl)carbamate] was tested. Which viability at 0.1 µM did it give?
**A.** 86.8 ± 3.14%

**Q.** What about the viability at 0.3 µM of the same compound?
**A.** 81.4 ± 13%

**Q.** What about the viability at 1 µM of the same compound?
**A.** 71.8 ± 25.7%

**Q.** What about the viability at 3 µM of the same compound?
**A.** 79.7 ± 10.6%

**Q.** And the viability at 10 µM?
**A.** 90 ± 16.3%

**Q.** And the viability at 30 µM?
**A.** 106 ± 13.3%

**Q.** What does the source list for CCOC(=O)Nc1ccc(NCc2ccc3ccccc3c2)nc1N [AM-5-3, Ethyl (2-amino-6-((naphthalen-2-ylmethyl)amino)pyridin-3-yl)carbamate]?
**A.** viability at 0.1 µM: 70.5 ± 24.2%; viability at 0.3 µM: 76.9 ± 20.8%; viability at 1 µM: 81.7 ± 12.6%; viability at 3 µM: 57.6 ± 6.35%; viability at 10 µM: 65.1 ± 22.6%; viability at 30 µM: 103 ± 1.31%

**Q.** CCOC(=O)Nc1ccc(NCc2ccc(SC(F)(F)F)cc2)nc1N [AM-8-3, Ethyl (2-amino-6-((4-((trifluoromethyl)thio)benzyl)amino)pyridin-3-yl)carbamate] was tested. Which viability at 0.1 µM did it give?
**A.** 69 ± 9.99%

**Q.** And the viability at 0.3 µM?
**A.** 92.6 ± 9.23%

**Q.** And the viability at 1 µM?
**A.** 82.3 ± 7.02%

**Q.** And the viability at 3 µM?
**A.** 79.2 ± 23.6%

**Q.** What about the viability at 10 µM of the same compound?
**A.** 89.1 ± 2.16%

**Q.** And the viability at 30 µM?
**A.** 110 ± 15.3%

**Q.** CCOC(=O)Nc1ccc(NCc2ccc(-c3cccs3)cc2)nc1N [AM-11-3, Ethyl (2-amino-6-((4-(thiophen-2-yl)benzyl)amino)pyridin-3-yl)carbamate] was tested. Which viability at 0.1 µM did it give?
**A.** 64.1 ± 16.6%

**Q.** What about the viability at 0.3 µM of the same compound?
**A.** 77.1 ± 25.2%

**Q.** What about the viability at 1 µM of the same compound?
**A.** 89.8 ± 30.1%

**Q.** And the viability at 3 µM?
**A.** 76.1 ± 12.8%

**Q.** And the viability at 10 µM?
**A.** 89 ± 29.1%

**Q.** And the viability at 30 µM?
**A.** 35.3 ± 5.69%

**Q.** Which results are given for CCOC(=O)Nc1ccc(NCc2ccc(C(F)(F)F)cc2)nc1 [AM-15-3, Ethyl (6-((4-(trifluoromethyl)benzyl)amino)pyridin-3-yl)carbamate]?
**A.** viability at 0.1 µM: 59.7 ± 6.74%; viability at 0.3 µM: 54.1 ± 12.7%; viability at 1 µM: 59 ± 12.9%; viability at 3 µM: 64 ± 7.87%; viability at 10 µM: 66.4 ± 4.11%; viability at 30 µM: 52.9 ± 8.69%

**Q.** CCOC(=O)Nc1ccc(NCc2ccc(OC(F)(F)F)cc2)nc1N [JG-33-4, Ethyl (2-amino-6-((4-(trifluoromethoxy)benzyl)amino)pyridin-3-yl)carbamate] was tested. Which viability at 0.1 µM did it give?
**A.** 71.3 ± 16.1%

**Q.** And the viability at 0.3 µM?
**A.** 81.6 ± 10.9%

**Q.** And the viability at 1 µM?
**A.** 79.8 ± 12.8%

**Q.** What about the viability at 3 µM of the same compound?
**A.** 95.3 ± 14.6%

**Q.** What about the viability at 10 µM of the same compound?
**A.** 88.9 ± 12.6%

**Q.** And the viability at 30 µM?
**A.** 82.4 ± 12.6%

**Q.** Which viability at 0.1 µM does the source give for CCOC(=O)Nc1ccc(NCc2ccccc2C(F)(F)F)nc1N [JG-34-4, Ethyl (2-amino-6-((2-(trifluoromethyl)benzyl)amino)pyridin-3-yl)carbamate] here?
**A.** 74.6 ± 2.18%

**Q.** And the viability at 0.3 µM?
**A.** 72.4 ± 16.4%

**Q.** What about the viability at 1 µM of the same compound?
**A.** 95.1 ± 10.3%

**Q.** And the viability at 3 µM?
**A.** 91.5 ± 12.9%

**Q.** And the viability at 10 µM?
**A.** 95.4 ± 19.3%

**Q.** And the viability at 30 µM?
**A.** 77.7 ± 6.86%

**Q.** With Nc1nc(NCc2ccccc2C(F)(F)F)ccc1NC(=O)OCC(Cl)(Cl)Cl [JG-35-4, 2,2,2-trichloroethyl (2-amino-6-((2-(trifluoromethyl)benzyl)amino)pyridin-3-yl)carbamate] as the compound, how does the viability at 1 µM read?
**A.** 92.2 ± 37.2%

**Q.** What about the viability at 3 µM of the same compound?
**A.** 108 ± 7.32%

**Q.** And the viability at 10 µM?
**A.** 93.2 ± 21.6%

**Q.** What about the viability at 30 µM of the same compound?
**A.** 71.6 ± 20.8%

**Q.** For CCOC(=O)Nc1ccc(NCCc2ccccc2)nc1N [JG-36-4, Ethyl (2-amino-6-(phenethylamino)pyridin-3-yl)carbamate], which viability at 0.1 µM is on record?
**A.** 52.1 ± 11.5%

**Q.** What about the viability at 0.3 µM of the same compound?
**A.** 56.9 ± 12%

**Q.** And the viability at 1 µM?
**A.** 69.2 ± 7.1%

**Q.** What about the viability at 3 µM of the same compound?
**A.** 50 ± 9.09%

**Q.** And the viability at 10 µM?
**A.** 59.6 ± 9.05%

**Q.** What about the viability at 30 µM of the same compound?
**A.** 60.5 ± 5.82%

**Q.** CCOC(=O)Nc1ccc(NCc2cc(F)cc(C(F)(F)F)c2)nc1N [JG-38-4, Ethyl (2-amino-6-((3-fluoro-5-(trifluoromethyl)benzyl)amino)pyridin-3-yl)carbamate] was tested. Which viability at 0.1 µM did it give?
**A.** 69 ± 13.6%

**Q.** What about the viability at 0.3 µM of the same compound?
**A.** 64.7 ± 12.5%

**Q.** And the viability at 1 µM?
**A.** 69.7 ± 14.9%

**Q.** And the viability at 3 µM?
**A.** 72.9 ± 13.2%

**Q.** What about the viability at 10 µM of the same compound?
**A.** 90.1 ± 15.1%

**Q.** And the viability at 30 µM?
**A.** 78.2 ± 12.5%

**Q.** Which viability at 1 µM does the source give for CCOC(=O)Nc1ccc(N2CCOCC2)nc1N [JG-41-4, Ethyl (2-amino-6-morpholinopyridin-3-yl)carbamate] here?
**A.** 85.8 ± 15.5%

**Q.** And the viability at 3 µM?
**A.** 88.7 ± 13.5%

**Q.** What about the viability at 10 µM of the same compound?
**A.** 78.9 ± 14.3%

**Q.** And the viability at 30 µM?
**A.** 63.9 ± 12.4%

**Q.** Which viability at 1 µM does the source give for Cc1ccc(OC(=O)Nc2ccc(NCc3ccc(F)cc3)cc2N)cc1 [JG-48-6, p-tolyl (2-amino-4-((4-fluorobenzyl)amino)phenyl)carbamate] here?
**A.** 70 ± 16.1%

**Q.** And the viability at 3 µM?
**A.** 91.6 ± 11%

**Q.** And the viability at 10 µM?
**A.** 83.7 ± 2.26%

**Q.** And the viability at 30 µM?
**A.** 67.5 ± 10.2%

**Q.** How did the viability at 0.1 µM turn out when CC(C)(C)OC(=O)Nc1ccc(NCc2ccc(F)cc2)nc1N [NK-13-1, tert-butyl 6-(4-fluorobenzylamino)-2-aminopyridin-3-ylcarbamate] was run?
**A.** 53.5 ± 9.17%

**Q.** What about the viability at 0.3 µM of the same compound?
**A.** 47.6 ± 3.19%

**Q.** And the viability at 1 µM?
**A.** 57.2 ± 13.6%

**Q.** What about the viability at 3 µM of the same compound?
**A.** 42.2 ± 6.03%

**Q.** And the viability at 10 µM?
**A.** 68.1 ± 21.6%

**Q.** And the viability at 30 µM?
**A.** 64.4 ± 12.8%

**Q.** For CCOC(=O)Nc1ccc(NCc2ccc(F)cc2)nc1 [NK-31-3], which viability at 1 µM is on record?
**A.** 109 ± 35.9%

**Q.** And the viability at 3 µM?
**A.** 110 ± 19.4%

**Q.** And the viability at 10 µM?
**A.** 101 ± 15.9%

**Q.** What about the viability at 30 µM of the same compound?
**A.** 69.3 ± 14.9%

**Q.** What does the source list for CCCCCCOC(=O)Nc1ccc(NCc2ccc(F)cc2)cc1N [NK-34-2, Hexyl (2-amino-4-((4-fluorobenzyl)amino)phenyl)carbamate]?
**A.** viability at 0.1 µM: 63 ± 11.8%; viability at 0.3 µM: 61 ± 5.7%; viability at 1 µM: 65.8 ± 6.14%; viability at 3 µM: 60.1 ± 11.4%; viability at 10 µM: 72.1 ± 13.4%; viability at 30 µM: 73.2 ± 4.74%

**Q.** Which results are given for Nc1nc(NCc2ccc(F)cc2)ccc1NC(=O)Oc1ccccc1 [NK-41-1, Phenyl (2-amino-6-((4-fluorobenzyl)amino)pyridin-3-yl)carbamate]?
**A.** viability at 0.1 µM: 57.5 ± 3.62%; viability at 0.3 µM: 53.4 ± 0.8%; viability at 1 µM: 58.1 ± 2.08%; viability at 3 µM: 59 ± 6.87%; viability at 10 µM: 68.9 ± 7.71%; viability at 30 µM: 70.3 ± 10.6%

**Q.** How did the viability at 0.1 µM turn out when Nc1nc(NCc2ccc(F)cc2)ccc1NC(=O)OCC1c2ccccc2-c2ccccc21 [NK-43-1, (9H-fluoren-9-yl)methyl (2-amino-6-((4-fluorobenzyl)amino)pyridin-3-yl)carbamate] was run?
**A.** 67.5 ± 6.34%

**Q.** What about the viability at 0.3 µM of the same compound?
**A.** 63.9 ± 6.2%

**Q.** And the viability at 1 µM?
**A.** 69 ± 10.3%

**Q.** And the viability at 3 µM?
**A.** 56.4 ± 8.99%

**Q.** What about the viability at 10 µM of the same compound?
**A.** 66.7 ± 5.97%

**Q.** What about the viability at 30 µM of the same compound?
**A.** 49.7 ± 1.76%

**Q.** How did the viability at 0.1 µM turn out when C#CCOC(=O)Nc1ccc(NCc2ccc(F)cc2)nc1N [NK-45-1, Prop-2-yn-1-yl (2-amino-6-((4-fluorobenzyl)amino)pyridin-3-yl)carbamate] was run?
**A.** 60.4 ± 1.29%

**Q.** And the viability at 0.3 µM?
**A.** 57.5 ± 3.95%

**Q.** What about the viability at 1 µM of the same compound?
**A.** 64.9 ± 11.7%

**Q.** And the viability at 3 µM?
**A.** 61.9 ± 9.82%

**Q.** And the viability at 10 µM?
**A.** 65.4 ± 10.7%

**Q.** What about the viability at 30 µM of the same compound?
**A.** 64.8 ± 3.9%

**Q.** For Nc1nc(NCc2ccc(F)cc2)ccc1NC(=O)OCC(Cl)(Cl)Cl [NK-46-1, 2,2,2-trichloroethyl (2-amino-6-((4-fluorobenzyl)amino)pyridin-3-yl)carbamate], which viability at 0.1 µM is on record?
**A.** 74.1 ± 9.21%

**Q.** What about the viability at 0.3 µM of the same compound?
**A.** 108 ± 12.7%

**Q.** And the viability at 1 µM?
**A.** 94.9 ± 8.18%

**Q.** And the viability at 3 µM?
**A.** 77.2 ± 8.19%

**Q.** And the viability at 10 µM?
**A.** 83.9 ± 18%

**Q.** And the viability at 30 µM?
**A.** 113 ± 3.53%

**Q.** Which viability at 0.1 µM does the source give for CCOC(=O)Nc1ccc(NC(C)c2ccccc2)nc1N (stereo not shown) [NK-52-3, Ethyl (2-amino-6-((1-phenylethyl)amino)pyridin-3-yl)carbamate] here?
**A.** 50 ± 1.04%

**Q.** And the viability at 0.3 µM?
**A.** 56 ± 4.21%

**Q.** And the viability at 1 µM?
**A.** 56.7 ± 5.69%

**Q.** What about the viability at 3 µM of the same compound?
**A.** 66.2 ± 4.77%

**Q.** And the viability at 10 µM?
**A.** 53.2 ± 2.3%

**Q.** And the viability at 30 µM?
**A.** 24 ± 6.78%
